Measured values published in patent US10472346B2, “Potent gamma-secretase modulators” (The General Hospital Coporation, priority 2014, dated 2019).

Legend:
[1] = Plasma concentrations (pharmacokinetics) in male Sprague Dawley rats, iv and po; format: in vivo; details: rat
Description: FIG. 4. Time course of administration of Compound 1 to male Sprague Dawley rats: iv (1 mg/kg) or po (5 mg/kg). […] Clearance was 89 mL/hr/kg. T1/2 (iv) was 5.9 hrs.
Efficacy Studies in Rat. Plasma Concentrations of Compound 1 in Male Sprague Dawley Rats. FIG. 4 depicts the time course of administration of Compound 1 to male Sprague Dawley rats: iv (1 mg/kg) or [p (5 mg/kg). […] Clearance was 89 mL/hr/kg. T1/2 (iv) was 5.9 hrs.

total Aβ peptides = assay: Levels of total Aβ peptides, SHSYSY-APP cell-based assay (sandwich ELISA); details: concentration response, percent solvent control
Description: FIG. 8: Representative concentration response curves of Compound 1 using our primary and orthogonal medium throughput SHSYSY-APP cell-based screening assays (10). Compounds are first screened two times in triplicate in our UCSD sandwich Aβ42 ELISA on sequential days and the average of the two assays must be within 3-fold of each other before being entered into the CDD relational database. The UCSD sandwich ELISA assay can easily handle 20 compounds per week. Compounds with Aβ42 IC50 values <100 nM continue through the testing funnel. The Z′ score and the % CV for the UCSD Aβ42 sandwich ELISA assay are 0.8 and 4, respectively. For the Meso Scale triplex assay the Z′ scores are 0.7, 0.9 and 0.6 Aβ42, Aβ40 and Aβ38, respectively and the % CV's are 7, 2 and 1 for Aβ42, Aβ40 and Aβ38, respectively. Aβ total peptides are measured using a sandwich ELISA.
The figure depicts percent solvent control (Aβ40/Aβ42/AβTotal) (left axis) and percent solvent control (Aβ38) again log of, concentration of Compound 1.

bioavailability ([1]; iv (1 mg/kg) or po (5 mg/kg)): 60.3%
clearance ([1]; iv (1 mg/kg) or po (5 mg/kg)): 1.48 mL/min/kg
half-life ([1]; iv (1 mg/kg), read-out: T1/2 (iv) (converted)): 5.9 h
SMILES: COc1nc(-c2cc(C)c(N[C@@H](C)c3ccc(F)cc3)nn2)ccc1-n1cnc(C)c1 [Compound 1, (S)—N-(1-(4-fluorophenyl)ethyl)-6-(6-methoxy-5-(4-methyl-1H-imidazol-1-yl)pyridin-2-yl)-4-methylpyridazin-3-amine]
levels of total Aβ peptides (total Aβ peptides): does not decrease levels of total Aβ peptides
